Measurements published in ChEMBL document CHEMBL5257024, “Synthesis of α,β-Unsaturated Carbonyl-Based Compounds, Oxime and Oxime Ether Analogs as Potential Anticancer Agents for Overcoming Cancer Multidrug Resistance by Modulation of Efflux Pumps in Tumor Cells” (J Med Chem, 2016).
The source made the active and inactive calls. The calls are words filed in the database; no cut-off is given here.

Experiments:
PANC-1 = assay: cells; details: Homo sapiens, PANC-1, 48 h
Description: Antiproliferative activity against human PANC-1 cells assessed as inhibition of cell growth incubated for 48 hrs by propidium iodide staining based fluorometer assay

HT-29 = assay: cells; details: Homo sapiens, HT-29, 48 h
Description: Antiproliferative activity against human HT-29 cells assessed as inhibition of cell growth incubated for 48 hrs by propidium iodide staining based fluorometer assay

MIA PaCa-2 = assay: Antiproliferative activity against human MIA PaCa-2 cells assessed as inhibition of cell growth incubated for 48 hrs by propidium iodide staining based fluorometer assay; assay type: functional; details: MIA PaCa-2, 48 h
PC-3 = assay: cells; details: Homo sapiens, PC-3, 48 h
Description: Antiproliferative activity against human PC-3 cells assessed as inhibition of cell growth incubated for 48 hrs by propidium iodide staining based fluorometer assay

NCI-H460 = assay: cells; details: Homo sapiens, NCI-H460, 48 h
Description: Antiproliferative activity against human NCI-H460 cells assessed as inhibition of cell growth incubated for 48 hrs by propidium iodide staining based fluorometer assay

A549 = assay: Antiproliferative activity against human A549 cells assessed as inhibition of cell growth incubated for 48 hrs by propidium iodide staining based fluorometer assay; assay type: functional; details: A549, 48 h
[1] = Cytotoxicity against human MCF-10A cells assessed as cell viability incubated for 96 hrs by MTT assay; assay type: toxicity, cell-based; parameters: concentration or dose not given beside the values; details: read-out: Activity
MCF7 = assay: Antiproliferative activity against human MCF7 cells assessed as inhibition of cell growth incubated for 48 hrs by propidium iodide staining based fluorometer assay; assay type: functional; details: MCF7, 48 h
Sus scrofa = species: Sus scrofa; assay: Induction of pig brain microtubule stabilization at 25 uM measured after 15 mins by fluorescence based turbidimetry; assay type: tissue-based

SMILES | IC50 (PANC-1) | IC50 (HT-29) | IC50 (MIA PaCa-2) | IC50 (PC-3) | IC50 (NCI-H460) | IC50 (A549) | viability at 96 h [1] | IC50 (MCF7) | Activity (Sus scrofa)
COc1ccc(/C=C2\CCc3c(O)cccc3C2=O)c(Cl)c1OC | 3.6 µM | 3 µM | 3.2 µM | 3.5 µM | 3.8 µM | 3.3 µM | 91% | 3.1 µM | 
COc1ccc(OC)c2c1CC/C(=C\c1cc(OC)c(OC)c(OC)c1Br)C2=O | 2.5 µM | 1.9 µM | 2.2 µM | 2.2 µM | 2.1 µM | 2.6 µM | 91% | 2.4 µM | 
COc1ccc(/C=C2\CNC/C(=C\c3ccc(OC)c(OC)c3Cl)C2=O)c(Cl)c1OC | 6.5 µM | 6.6 µM | 6.2 µM | 7 µM | 7.2 µM | 7.5 µM | 92% | 6.4 µM | 
CCN(CC)CCON=C1/C(=C/c2cc(OC)c(OC)c(OC)c2Br)CC(C)C/C1=C\c1cc(OC)c(OC)c(OC)c1Br (stereo not drawn) | 4.2 µM | 4.5 µM | 4.9 µM | 4.7 µM | 4.1 µM | 4.1 µM | 94% | 4.1 µM | inactive
COc1cccc(/C=C2\CC(C)C/C(=C\c3cccc(OC)c3Cl)C2=O)c1Cl (stereo not drawn) | 3.3 µM | 3.4 µM | 2.9 µM | 3.9 µM | 4.2 µM | 3.1 µM | 93% | 2.8 µM | 
COc1cc(/C=C2\CCC/C(=C\c3cc(OC)c(OC)c(OC)c3Br)C2=NO)c(Br)c(OC)c1OC | 2.2 µM | 2.1 µM | 2.6 µM | 2.5 µM | 2.5 µM | 2.6 µM | 95% | 2.9 µM | 
COc1cc(/C=C2\CC(C)C/C(=C\c3cc(OC)c(OC)c(OC)c3Br)C2=O)c(Br)c(OC)c1OC (stereo not drawn) | 1.6 µM | 1.8 µM | 1.4 µM | 1.1 µM | 1.2 µM | 1.8 µM | 91% | 1.3 µM | 
COc1ccc2c(c1)CC/C(=C\c1cccc(OC)c1Cl)C2=O | 4.5 µM | 4.4 µM | 4 µM | 4.7 µM | 4.7 µM | 4.6 µM | 95% | 5.1 µM | 
COc1cc(/C=C2\CN(C)C/C(=C\c3cc(OC)c(OC)c(OC)c3Br)C2=O)c(Br)c(OC)c1OC | 1.8 µM | 1.1 µM | 1.9 µM | 1.6 µM | 1.8 µM | 1.3 µM | 92% | 1.9 µM | 
COc1cc(/C=C2\CCc3ccc(Br)cc3C2=O)c(Br)c(OC)c1OC | 9.9 µM | 9.2 µM | 9 µM | 9.3 µM | 10.9 µM | 9.1 µM | 92% | 10.9 µM | 
COc1ccc(/C=C2\CN(C)C/C(=C\c3ccc(OC)c(OC)c3Cl)C2=O)c(Cl)c1OC | 3.4 µM | 3.8 µM | 3.2 µM | 3.3 µM | 3.5 µM | 3.9 µM | 90% | 3.3 µM | 
COc1cccc(/C=C2\CCc3ccc(F)cc3C2=O)c1Cl | 12.4 µM | 12.9 µM | 15.2 µM | 12.6 µM | 15.2 µM | 11.1 µM | 90% | 12.9 µM | 
COc1cccc(/C=C2\CN(Cc3ccccc3)C/C(=C\c3cccc(OC)c3Cl)C2=O)c1Cl | 17.5 µM | 15.9 µM | 17 µM | 18.7 µM | 14.1 µM | 15.4 µM | 89% | 17.6 µM | 
COc1cc(/C=C2\CNC/C(=C\c3cc(OC)c(OC)c(OC)c3Br)C2=O)c(Br)c(OC)c1OC | 4.2 µM | 4.5 µM | 4.3 µM | 4.8 µM | 4.9 µM | 4.4 µM | 96% | 4 µM | 
